Laboratory results as given in ChEMBL document CHEMBL1649419, “Design and synthesis of pyrimidinone and pyrimidinedione inhibitors of dipeptidyl peptidase IV” (J Med Chem, 2011).

Assays:
[1] = Half life in rat liver microsomes by LC/MS analysis; type: ADME, Microsome
[2] = Half life in human liver microsomes by LC/MS analysis; type: ADME, Microsome
[3] = Half life in dog at 0.52 mg/kg, iv; type: ADME, organism-based, Canis lupus familiaris; set-up: dose 0.52 mg/kg, route intravenous; details: in vivo
[4] = Oral bioavailability in dog at 1.8 mg/kg; type: ADME, organism-based, Canis lupus familiaris; details: in vivo
[5] = Half life in rat at 14 mg/kg, po; type: ADME, organism-based; set-up: dose 14 mg/kg, route oral; details: in vivo
[6] = AUC in rat at 14 mg/kg, po; type: ADME, organism-based; set-up: dose 14 mg/kg, route oral; details: plasma
[7] = Volume of distribution at steady state in rat at 1.4 mg/kg, iv and 14 mg/kg, po; type: ADME, organism-based; details: in vivo, read-out: Vdss
[8] = Oral bioavailability in rat at 14 mg/kg; type: ADME, organism-based; details: in vivo
[9] = Volume of distribution at steady state in dog at 0.52 mg/kg, iv and 1.8 mg/kg, po; type: ADME, organism-based, Canis lupus familiaris; details: in vivo, read-out: Vdss
[10] = AUC in dog at 1.8 mg/kg, po; type: ADME, organism-based, Canis lupus familiaris; set-up: dose 1.8 mg/kg, route oral; details: plasma
[11] = Half life in dog at 1.8 mg/kg, po; type: ADME, organism-based, Canis lupus familiaris; set-up: dose 1.8 mg/kg, route oral; details: in vivo
[12] = Half life in rat at 1.4 mg/kg, iv; type: ADME, organism-based; set-up: dose 1.4 mg/kg, route intravenous; details: in vivo
Macaca fascicularis [13] = experiment: Half life in monkey at 0.93 mg/kg, iv; details: cynomolgus monkey, in vivo
[14] = Half life in dog at 2.7 mg/kg, po; type: ADME, organism-based, Canis lupus familiaris; set-up: dose 2.7 mg/kg, route oral; details: in vivo
[15] = Clearance in dog at 0.90 mg/kg, iv and 2.7 mg/kg, po; type: ADME, organism-based, Canis lupus familiaris; details: in vivo, 0.9 mg/kg
[16] = Oral bioavailability in dog at 2.7 mg/kg, po; type: ADME, organism-based, Canis lupus familiaris; details: in vivo
[17] = AUC in dog at 2.7 mg/kg, po; type: ADME, organism-based, Canis lupus familiaris; set-up: dose 2.7 mg/kg, route oral; details: plasma
[18] = Volume of distribution at steady state in dog at 0.90 mg/kg, iv and 2.7 mg/kg, po; type: ADME, organism-based, Canis lupus familiaris; details: in vivo, 0.9 mg/kg, read-out: Vdss
[19] = Half life in dog at 0.90 mg/kg, iv; type: ADME, organism-based, Canis lupus familiaris; set-up: dose 0.9 mg/kg, route intravenous; details: in vivo, 0.9 mg/kg
[20] = Half life in rat at 0.71 mg/kg, iv; type: ADME, organism-based; set-up: dose 0.71 mg/kg, route intravenous; details: in vivo
[21] = Volume of distribution at steady state in rat at 0.71 mg/kg, iv and 14 mg/kg, po; type: ADME, organism-based; details: in vivo, read-out: Vdss
[22] = AUC in monkey at 2.1 mg/kg, po; type: ADME, organism-based, Macaca mulatta; set-up: dose 2.1 mg/kg, route oral; details: rhesus monkey, plasma
[23] = Half life in monkey at 2.1 mg/kg, po; type: ADME, organism-based, Macaca mulatta; set-up: dose 2.1 mg/kg, route oral; details: rhesus monkey, in vivo
[24] = Half life in monkey at 1.6 mg/kg, iv; type: ADME, organism-based, Macaca mulatta; set-up: dose 1.6 mg/kg, route intravenous; details: rhesus monkey, in vivo
[25] = Oral bioavailability in monkey at 2.1 mg/kg; type: ADME, organism-based, Macaca mulatta; details: rhesus monkey, in vivo
[26] = Volume of distribution at steady state in monkey at 1.6 mg/kg, iv and 2.1 mg/kg, po; type: ADME, organism-based, Macaca mulatta; details: rhesus monkey, in vivo, read-out: Vdss
Macaca fascicularis [27] = experiment: Half life in monkey at 4.6 mg/kg, po; details: cynomolgus monkey, in vivo
Macaca fascicularis [28] = experiment: in vivo; details: cynomolgus monkey, iv, 0.93 mg/kg
[29] = AUC in monkey at 4.6 mg/kg, po; details: cynomolgus monkey, plasma
Macaca fascicularis [30] = experiment: Oral bioavailability in monkey at 4.6 mg/kg, po; details: cynomolgus monkey, in vivo
Macaca fascicularis [31] = experiment: Volume of distribution at steady state in monkey at 0.93 mg/kg, iv and 4.6 mg/kg, po; details: cynomolgus monkey, in vivo, read-out: Vdss

For N#Cc1ccccc1Cn1c(N2CCC[C@@H](N)C2)ncc(I)c1=O, the half-life [1] was 0.983 h and the half-life [2] was 2.68 h.
For N#Cc1ccccc1Cn1c(N2CCC[C@@H](N)C2)ncc(-c2cc[nH]c2)c1=O, the half-life [1] was 1.18 h and the half-life [2] was 1.02 h.
Molecule N#Cc1ccc(F)cc1Cn1c(N2CCC[C@@H](N)C2)ncc(Br)c1=O has a half-life [1] of 0.683 h and a half-life [2] greater than 3.33 h.
Molecule N#Cc1ccccc1Cn1c(N2CCC[C@@H](N)C2)ncc(-c2ccoc2)c1=O has a half-life [1] of 0.0667 h and a half-life [2] of 0.933 h.
With N#Cc1ccc(F)cc1Cn1c(N2CCC[C@@H](N)C2)ncc(F)c1=O the half-life [1] was greater than 3.33 h and the half-life [2] was greater than 3.33 h.
With N#Cc1ccccc1Cn1c(N2CCC[C@@H](N)C2)ncc(-c2ccccc2)c1=O the half-life [1] was 0.0167 h and the half-life [2] was 1.17 h.
With N#Cc1ccccc1Cn1c(N2CCC[C@@H](N)C2)nccc1=O.O=C(O)C(F)(F)F the half-life [3] was 2.4 h, the bioavailability [4] was 78% and the half-life [5] was 1 h. For the same molecule, the AUC [6] was 1200 ng·h/mL, the Vd [7] was 4.8 L/kg and the bioavailability [8] was 54%. It also gave a Vd [9] of 3 L/kg, an AUC [10] of 1400 ng·h/mL and a half-life [11] of 2.8 h. It also gave a half-life [12] of 0.74 h.
N#Cc1ccccc1Cn1c(N2CCC[C@@H](N)C2)ncc(C#CCO)c1=O showed a half-life [1] greater than 3.33 h and a half-life [2] greater than 3.33 h.
N[C@@H]1CCCN(c2cc(=O)[nH]c(=O)n2Cc2ccccc2Br)C1 showed a half-life [1] greater than 1.97 h and a half-life [2] greater than 3.33 h.
In the case of Cn1c(=O)cc(N2CCC[C@@H](N)C2)n(Cc2cc(F)ccc2C#N)c1=O [TRELAGLIPTIN], the half-life [1] is reported as greater than 3.33 h and the half-life [2] is reported as greater than 3.33 h.
Cn1c(=O)cc(N2CCC[C@@H](N)C2)n(Cc2ccccc2Br)c1=O showed a half-life [1] of 1.37 h and a half-life [2] greater than 3.33 h.
Work on Cn1c(=O)cc(N2CCC[C@@H](N)C2)n(Cc2cc(F)ccc2C#N)c1=O.O=C(O)C(F)(F)F yielded a half-life (Macaca fascicularis [13]) of 5.6 h, a half-life [14] of 4.8 h and a clearance [15] of 18 mL/min/kg. It also gave a bioavailability [16] of 90%, an AUC [17] of 2200 ng·h/mL and a Vd [18] of 4.4 L/kg. The half-life [19] was 1.5 h.
N#Cc1ccccc1Cn1c(N2CCC[C@@H](N)C2)nc2c(c1=O)CCCC2 showed a half-life [1] of 0.1 h and a half-life [2] of 1.38 h.
Molecule N#Cc1ccsc1Cn1c(N2CCC[C@@H](N)C2)ncc(Br)c1=O has a half-life [1] of 0.25 h and a half-life [2] greater than 3.33 h.
For N#Cc1ccccc1Cn1c(N2CCC[C@@H](N)C2)cc(=O)[nH]c1=O, the half-life [1] was greater than 3.33 h and the half-life [2] was 2.15 h.
N#Cc1ccccc1Cn1c(N2CCC[C@@H](N)C2)ncc(F)c1=O.O=C(O)C(F)(F)F gave a half-life [5] of 1.5 h, an AUC [6] of 3800 ng·h/mL and a half-life [20] of 1.5 h. The bioavailability [8] was 73% and the Vd [21] was 4.2 L/kg.
For C#Cc1cnc(N2CCC[C@@H](N)C2)n(Cc2ccccc2C#N)c1=O, the half-life [1] was greater than 3.33 h and the half-life [2] was greater than 3.33 h.
Work on Cn1c(=O)cc(N2CCC[C@@H](N)C2)n(Cc2ccccc2C#N)c1=O [ALOGLIPTIN] yielded a half-life [1] of 3.33 h and a half-life [2] of 2.02 h.
For N#Cc1ccccc1Cn1c(N2CCC[C@@H](N)C2)nc(-c2ccccc2)cc1=O, the half-life [1] was 0.2 h and the half-life [2] was 1.98 h.
Cn1c(=O)cc(N2CCC[C@@H](N)C2)n(Cc2cc(F)ccc2Cl)c1=O gave a half-life [1] of 0.883 h and a half-life [2] greater than 3.33 h.
Molecule N#Cc1ccccc1Cn1c(N2CCC[C@@H](N)C2)ncc(F)c1=O.O=C(O)C(O)C(O)C(=O)O [TARTARATE] has an AUC [22] of 3100 ng·h/mL, a half-life [23] of 5.7 h and a half-life [24] of 4 h. The bioavailability [25] was 110% and the Vd [26] was 3.2 L/kg.
Cl.Cn1c(=O)cc(N2CCC[C@@H](N)C2)n(Cc2cc(F)ccc2C#N)c1=O showed a half-life (Macaca fascicularis [27]) of 6.2 h, a clearance (Macaca fascicularis [28]) of 10 mL/min/kg and an AUC [29] of 8000 ng·h/mL. For the same molecule, the bioavailability (Macaca fascicularis [30]) was 105% and the Vd (Macaca fascicularis [31]) was 3.3 L/kg.
Work on N#Cc1ccccc1Cn1c(N2CCC[C@@H](N)C2)ncc(/C=C/c2cccnc2)c1=O yielded a half-life [1] of 0.45 h and a half-life [2] greater than 3.33 h.
